Data on 9 molecules can be found in US20240287036A1, “COMPOUNDS USEFUL IN THE TREATMENT OR PREVENTION OF A PRMT5-MEDIATED DISORDER” (ARGONAUT THERAPEUTICS LIMITED, priority 2021, published 2024).

The target in series [1] is T1, human PRMT5/MEP50 (Homo sapiens, UniProt O14744).
T1 construct: host or cells: HEK293 cells
Kind of series: PRMT5 chemiluminescent assay. It is filed as biochemical. The note with it: human PRMT5/MEP50 expressed in HEK293 cells, biotinylated histone peptides, 60 min reaction; read-out: PRMT5 pIC50 (converted). Here is the method: A PRMT5 chemiluminescent assay was used to measure the IC50 activity of PRMT5 of the compounds of CEx and Examples 1 to 8 above. Biotinylated histone peptides were synthesized and attached to 384-well plates. Compound serial dilutions were performed and added to the assay plate. Histone H4 monomethyl R^3 antibody was obtained from Abcam. A master mix for each well was prepared and human PRMT5/MEP50 (expressed in HEK293 cells) diluted in assay buffer to a concentration of 5 ng/μL. The reaction was incubated and slowly rotated for 60 minutes at the point of PRMT5/MEP50 addition. The supernatant from the wells was removed and blocking buffer was added to each well and rotated for 10 minutes. The primary antibody was diluted and added to every well for 60 minutes, before it was removed and the wells washed. The horse radish peroxidase (HRP)-coupled secondary antibody was diluted and added to each well with an incubation time of 30 minutes. The HRP chemiluminescent substrate was added to every well. The plate was read on a Flourstar Omega BMG Labtech instrument (Ortenberg, Germany) and the analysis of IC50 was performed using the Flourstar Omega BMG Labtech software.

Series [2] in a line: Hepatocyte stability assay (Human Hep Clint). It is filed as in vitro ADME. The note with it: cryopreserved pooled human hepatocytes, 0.5 × 10^6 cells/mL, 1 μM test compound, up to 90 min. Here is the method: The activity of the compounds was tested using several industry accepted methods. These included methods to measure the human hepatocyte clearance values (Human Hep Clint) and a PRMT5 assay. The methods that were used were conventional.
Cell viability was tested by trypan blue exclusion after thawing.
Thawing Medium: Williams' Medium E containing 5% fetal bovine serum and 30% Percoll solution and other supplements.
Incubation Medium: Williams' Medium E (no phenol red) containing 2 mM L-Glutamine and 25 mM HEPES.
Stop Solution: Acetonitrile containing 200 ng/ml tolbutamide and labetalol as internal standards.
The following steps were performed. • 1. 10 mM test compounds were provided by Compound Sample Group. • 2. 30 mM positive control stock solutions: Dissolved accurate amount of positive control compounds in dimethyl sulfoxide (DMSO). • 3. 1000× Stock Solution: Diluted 10 mM test compounds and 30 mM positive control compounds to 1 mM and 3 mM with DMSO in 96-well plates. • 4. 100× Dosing Solution: Diluted 1 mM test compounds and 3 mM positive control compounds to 100 µM and 300 µM dosing solutions with ACN. • 5. Preparation of 0.5×10^6/mL cells suspension: cryopreserved cells were thawed, isolated and suspended in Incubation Medium, then diluted with pre-warmed Incubation Medium to 0.5×10^6 cells/mL. • 6. Add 198 μL of pre-warmed cell suspensions in 96-well plates. • 7. Preparation of Quenching Plate: Transfer 125 μL of stop solution (acetonitrile containing 200 ng/ml tolbutamide and 200 ng/ml labetalol as internal standards) in a set of pre-labelled 96-well plates. • 8. Spike 2 μL dosing solution to each well of 96-well plates in duplicates. • 9. For T0 Samples, mix to achieve a homogenous suspension for about 1 min, then immediately transfer 25 μL of each sample into well containing 125 μL of ice-cold stop solution followed by mixing. • 10. Incubate all plates at 37° ° C. in a 95% humidified incubator at 5% CO2 to start the reactions with constant shaking at about 600 rpm. • 11. At 15, 30, 60 and 90 min, mix samples and then transfer 25 μL of each sample at each time point to well containing 125 μL of ice-cold stop solution followed by mixing. • 12. Medium Control (MC) sample plates (labelled as T0-MC and T90-MC) are prepared at TO and T90 by adding the same components to each well except cell suspensions. • 13. At each corresponding time point, stop the reactions by removing the plates from incubator and mixing with 125 μL of ice-cold stop solution. • 14. Vortex the plates immediately on a plate shaker at 500 rpm for 10 minutes. Then, centrifuge all sample plates at 3220× g for 20 min at 4° C. • 15. After centrifugation, 80 μL/well of supernatant in the sample plates are transferred to another set of pre-labelled 96-well plates which containing 240 μL of ultra pure water according to the plate map. • 16. Analytical plates are sealed and store at 4° C. until LC-MS/MS analysis.
The remaining percents of test articles after incubation were calculated by the follow equations: […]
Use equation of first order kinetics to calculate t1/2 and CLint. Equation of first order kinetics:
[formula] [formula] CLint (hep)=k/million cells per mL
CLint (liver)=CLint (hep)·liver weight (g/kg body weight)*hepatocellularity

T1 sequence (O14744 whole entry): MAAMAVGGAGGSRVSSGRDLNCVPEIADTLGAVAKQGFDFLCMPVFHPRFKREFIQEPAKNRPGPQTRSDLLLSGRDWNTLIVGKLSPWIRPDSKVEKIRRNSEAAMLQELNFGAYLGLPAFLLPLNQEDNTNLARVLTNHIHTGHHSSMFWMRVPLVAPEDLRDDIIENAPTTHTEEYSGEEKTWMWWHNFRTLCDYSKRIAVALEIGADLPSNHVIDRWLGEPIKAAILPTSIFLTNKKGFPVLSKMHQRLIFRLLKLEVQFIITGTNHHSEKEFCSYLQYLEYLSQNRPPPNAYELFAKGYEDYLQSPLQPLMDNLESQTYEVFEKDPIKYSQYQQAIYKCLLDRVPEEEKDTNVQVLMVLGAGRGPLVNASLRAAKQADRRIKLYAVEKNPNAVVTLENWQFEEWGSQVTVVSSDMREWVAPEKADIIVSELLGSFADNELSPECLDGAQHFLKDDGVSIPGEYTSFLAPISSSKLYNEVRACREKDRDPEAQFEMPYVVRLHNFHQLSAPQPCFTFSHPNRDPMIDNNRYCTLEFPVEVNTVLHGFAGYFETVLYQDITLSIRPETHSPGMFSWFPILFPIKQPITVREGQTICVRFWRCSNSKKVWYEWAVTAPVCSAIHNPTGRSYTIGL
T1 sequence (Q9BQA1 whole entry partner): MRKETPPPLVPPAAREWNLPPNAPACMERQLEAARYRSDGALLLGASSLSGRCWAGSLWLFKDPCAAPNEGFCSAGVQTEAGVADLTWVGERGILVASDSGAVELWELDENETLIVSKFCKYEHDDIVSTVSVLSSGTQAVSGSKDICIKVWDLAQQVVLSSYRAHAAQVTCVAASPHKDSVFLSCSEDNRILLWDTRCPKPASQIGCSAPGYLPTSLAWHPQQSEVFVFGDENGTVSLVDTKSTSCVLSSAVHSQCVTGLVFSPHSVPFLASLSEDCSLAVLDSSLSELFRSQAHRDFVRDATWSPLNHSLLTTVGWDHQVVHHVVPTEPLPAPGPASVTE

Regarding `O=C(NC[C@H](O)CN1CCc2ccccc2C1)N1CCC[C@@H](c2ccccc2)C1` [CEx, reference compound], the IC50 in series [1] was 0.0126 µM. For the same molecule, the hepatocyte CLint at 1 μM in series [2] worked out at 54.1 µL/min/1e6 cells.

With `O=C(NC[C@H](O)CN1CCc2ccccc2C1)N1CCC[C@@H](N2CCCC2=O)C1` [Ex. 1, (R)—N—((S)-3-(3,4-dihydroisoquinolin-2(1H)-yl)-2-hydroxypropyl)-3-(2-oxopyrrolidin-1-yl)piperidine-1-carboxamide], in series [1], the IC50 was 0.0501 µM. The hepatocyte CLint at 1 μM in series [2] turned out to be 1.7 µL/min/1e6 cells.

In the case of `O=C(NC[C@H](O)CN1CCc2ccccc2C1)N1CCC[C@@H](N2CCCCC2=O)C1` [Ex. 2, (R)—N—((S)-3-(3,4-dihydroisoquinolin-2(1H)-yl)-2-hydroxypropyl)-2-oxo-[1,3′-bipiperidine]-1′-carboxamide], the IC50 in series [1] was 0.0158 µM. This molecule yielded a hepatocyte CLint at 1 μM in series [2] of less than 3 µL/min/1e6 cells.

`CC1CCC(=O)N([C@@H]2CCCN(C(=O)NC[C@H](O)CN3CCc4ccccc4C3)C2)C1` (stereo partly drawn) [Ex. 3, (3′R)—N—((S)-3-(3,4-dihydroisoquinolin-2(1H)-yl)-2-hydroxypropyl)-5-methyl-2-oxo-[1,3′-bipiperidine]-1′-carboxamide]: in series [1], the IC50 was 0.0316 µM. This molecule came in with an intrinsic clearance (hepatocyte CLint) at 1 μM in series [2] of 2.5 µL/min/1e6 cells.

On to `[2H]C1([2H])c2ccccc2CCN1C[C@@H](O)CNC(=O)N1CCC[C@@H](N2CCCCC2=O)C1` [Ex. 4, (R)—N—((S)-3-(3,4-dihydroisoquinolin-2(1H)-yl-1,1-d2)-2-hydroxypropyl)-2-oxo-[1,3′-bipiperidine]-1′-carboxamide], for which the IC50 in series [1] was 0.0316 µM. In series [2], this molecule showed a hepatocyte CLint at 1 μM of 2.5 µL/min/1e6 cells.

For the molecule `[2H]C1([2H])CN(C[C@@H](O)CNC(=O)N2CCC[C@@H](N3CCCCC3=O)C2)C([2H])([2H])c2ccccc21` [Ex. 5, (R)—N—((S)-3-(3,4-dihydroisoquinolin-2(1H)-yl-1,1,4,4-d4)-2-hydroxypropyl)-2-oxo-[1,3′-bipiperidine]-1′-carboxamide], the IC50 in series [1] is 0.02 µM.

Consider `CC1CCCN([C@@H]2CCCN(C(=O)NC[C@H](O)CN3CCc4ccccc4C3)C2)C1=O` (stereo partly drawn) [Ex. 6, (3′R)—N—((S)-3-(3,4-dihydroisoquinolin-2(1H)-yl)-2-hydroxypropyl)-3-methyl-2-oxo-[1,3′-bipiperidine]-1′-carboxamide], for which the IC50 in series [1] is 0.0126 µM. In series [2], this molecule gave a hepatocyte CLint at 1 μM of less than 6 µL/min/1e6 cells.

Turning to `Cc1ccnn([C@@H]2CCCN(C(=O)NC[C@H](O)CN3CCc4ccccc4C3)C2)c1=O` [Ex. 7, (R)—N—((S)-3-(3,4-dihydroisoquinolin-2(1H)-yl)-2-hydroxypropyl)-3-(5-methyl-6-oxopyridazin-1(6H)-yl)piperidine-1-carboxamide], the IC50 in series [1] was 0.00794 µM. The same molecule yielded a hepatocyte CLint at 1 μM in series [2] of 10.8 µL/min/1e6 cells.

For `CN1CCCN([C@@H]2CCCN(C(=O)NC[C@H](O)CN3CCc4ccccc4C3)C2)C1=O` [Ex. 8, (R)—N—((S)-3-(3,4-dihydroisoquinolin-2(1H)-yl)-2-hydroxypropyl)-3-(3-methyl-2-oxotetrahydropyrimidin-1(2H)-yl)piperidine-1-carboxamide], in series [1], the IC50 is 0.0126 µM. Also, the intrinsic metabolic clearance (hepatocyte CLint) at 1 μM in series [2] was less than 6.4 µL/min/1e6 cells.
